≈ marks a conversion by molar mass, not a printed value.
Tests used:
Experiment in all cases: Antifungal susceptibility testing (minimum inhibitory concentration), soyabean casein digest broth
Assay type in all cases: cell-based
A. niger = conditions: Aspergillus niger; end points after 48 hours, visually / spectrophotometer; NI till x = no inhibition up to x; read-out: Activity against organisms In μg/ml, A. niger (minimum inhibitory concentration)
Description: (§1) In vitro evaluation of antifungal activity can be performed by determining the minimum inhibitory concentration. Anti-fungal susceptibility testing of these anti-fungal compounds was done by conventional method using soyabean casein digest broth. Known anti-fungal agents like Fluconazole and amphotericin-B were used as positive control. End points were determined after 48 hours visually and by using Spectrophotometer wherever necessary. Different dilutions were tried and the set of experiments.

C. albicans = conditions: Candida albicans; end points after 48 hours, visually / spectrophotometer; NI till x = no inhibition up to x; read-out: Activity against organisms In μg/ml, C. albicans (minimum inhibitory concentration)
Description: as §1

F. proliferatum = conditions: Fusarium proliferatum; end points after 48 hours, visually / spectrophotometer; NI till x = no inhibition up to x; read-out: Activity against organisms In μg/ml, F. proliferatum (minimum inhibitory concentration)
Description: as §1

## O=C(CCCCl)OCC1C=C(c2cccc(Br)c2)C(=O)O1 (stereo not drawn) [1HC, 4-(3-bromophenyl)-5-oxo-2,5-dihydrofuran-2-ylmethyl 4-chlorobutyrate]
A. niger
  MIC: 4 to 8 µg/mL (≈ 10.7 to 21.4 µM)
C. albicans
  MIC: 1 to 2 µg/mL (≈ 2.68 to 5.35 µM)
F. proliferatum
  MIC: 1 to 2 µg/mL (≈ 2.68 to 5.35 µM)

## COc1ccc(C2=CC(COC(=O)c3cccs3)OC2=O)cc1Br (stereo not drawn) [1DE, 4-(3-bromo-4-methoxyphenyl)-5-oxo-2,5-dihydrofuran-2-ylmethyl thiophene-2-carboxylate]
A. niger
  MIC: > 2 µg/mL
C. albicans
  MIC: > 2 µg/mL
F. proliferatum
  MIC: > 2 µg/mL

## O=C1OC(COC(=O)c2cccc(I)c2)C=C1c1cccc(Cl)c1 (stereo not drawn) [1JB, 4-(3-chlorophenyl)-5-oxo-2,5-dihydrofuran-2-ylmethyl 3-iodobenzoate]
A. niger
  MIC: > 2 µg/mL
C. albicans
  MIC: > 2 µg/mL
F. proliferatum
  MIC: > 2 µg/mL

## O=C(CCCl)OCC1C=C(c2ccc(Cl)c(Cl)c2)C(=O)O1 (stereo not drawn) [1GA, 4-(3,4-dichlorophenyl)-5-oxo-2,5-dihydrofuran-2-ylmethyl 3-chloropropionate]
A. niger
  MIC: 2 µg/mL (≈ 5.72 µM)
C. albicans
  MIC: 4 µg/mL (≈ 11.4 µM)
F. proliferatum
  MIC: 2 µg/mL (≈ 5.72 µM)

## O=C(CCCCl)OCC1C=C(c2ccc(Cl)c(Cl)c2)C(=O)O1 (stereo not drawn) [1HA, 4-(3,4-dichlorophenyl)-5-oxo-2,5-dihydrofuran-2-ylmethyl 4-chlorobutyrate]
A. niger
  MIC: 1 to 2 µg/mL (≈ 2.75 to 5.5 µM)
C. albicans
  MIC: 1 to 2 µg/mL (≈ 2.75 to 5.5 µM)
F. proliferatum
  MIC: 1 to 2 µg/mL (≈ 2.75 to 5.5 µM)

## O=C(CCCl)OCC1C=C(c2cccc(Cl)c2)C(=O)O1 (stereo not drawn) [1GB, 4-(3-chlorophenyl)-5-oxo-2,5-dihydrofuran-2-ylmethyl 3-chloropropionate]
A. niger
  MIC: 2 µg/mL (≈ 6.35 µM)
C. albicans
  MIC: 2 µg/mL (≈ 6.35 µM)
F. proliferatum
  MIC: 4 µg/mL (≈ 12.7 µM)

## O=C1OC(COC(=O)c2ccsc2)C=C1c1cccc(Br)c1 (stereo not drawn) [1EC, 4-(3-bromophenyl)-5-oxo-2,5-dihydrofuran-2-ylmethyl thiophene-3-carboxylate]
A. niger
  MIC: 2 µg/mL (≈ 5.27 µM)
C. albicans
  MIC: 2 µg/mL (≈ 5.27 µM)
F. proliferatum
  MIC: 1 µg/mL (≈ 2.64 µM)

## CC(=O)OCC1C=C(c2cccc(F)c2)C(=O)O1 (stereo not drawn) [1BD, 3-fluorophenyl-5-acetxymethyl-2H,5H-furan-2-one]
A. niger
  MIC: 1 to 2 µg/mL (≈ 4 to 7.99 µM)
C. albicans
  MIC: 1 to 2 µg/mL (≈ 4 to 7.99 µM)
F. proliferatum
  MIC: 1 to 2 µg/mL (≈ 4 to 7.99 µM)

## O=C(CCCCl)OCC1C=C(c2cccc(Cl)c2)C(=O)O1 (stereo not drawn) [1HB, 4-(3-chlorophenyl)-5-oxo-2,5-dihydrofuran-2-ylmethyl 4-chlorobutyrate]
A. niger
  MIC: 2 to 4 µg/mL (≈ 6.08 to 12.2 µM)
C. albicans
  MIC: 1 to 2 µg/mL (≈ 3.04 to 6.08 µM)
F. proliferatum
  MIC: 1 to 2 µg/mL (≈ 3.04 to 6.08 µM)

## C=CCC(=O)OCC1C=C(c2ccc(Cl)c(Cl)c2)C(=O)O1 (stereo not drawn) [1CA, 3,4-dichlorophenyl-5-allyloyloxymethyl-2H,5H-furan-2-one]
A. niger
  MIC: 1 µg/mL (≈ 3.06 µM)
C. albicans
  MIC: 2 µg/mL (≈ 6.11 µM)
F. proliferatum
  MIC: 1 µg/mL (≈ 3.06 µM)

## O=C(CCCl)OCC1C=C(c2cccc(Br)c2)C(=O)O1 (stereo not drawn) [1GC, 4-(3-bromophenyl)-5-oxo-2,5-dihydrofuran-2-ylmethyl 3-chloropropionate]
A. niger
  MIC: 4 µg/mL (≈ 11.1 µM)
C. albicans
  MIC: 2 µg/mL (≈ 5.56 µM)
F. proliferatum
  MIC: 2 µg/mL (≈ 5.56 µM)

## O=C1OC(COC(=O)c2ccccc2)C=C1c1cccc(Br)c1 (stereo not drawn) [1AC, 3-bromophenyl-5-benzoyloxymethyl-2H,5H-furan-2-one]
A. niger
  MIC: 4 µg/mL (≈ 10.7 µM)
C. albicans
  MIC: 2 µg/mL (≈ 5.36 µM)
F. proliferatum
  MIC: 0.5 µg/mL (≈ 1.34 µM)

## O=C(CCCCl)OCC1C=C(c2cccc(F)c2)C(=O)O1 (stereo not drawn) [1HD, 4-(3-fluorophenyl)-5-oxo-2,5-dihydrofuran-2-ylmethyl 4-chlorobutyrate]
A. niger
  MIC: 1 to 2 µg/mL (≈ 3.2 to 6.4 µM)
C. albicans
  MIC: 1 to 2 µg/mL (≈ 3.2 to 6.4 µM)
F. proliferatum
  MIC: 1 to 2 µg/mL (≈ 3.2 to 6.4 µM)

## O=C1OC(COC(=O)c2ccc[nH]2)C=C1c1cccc(Cl)c1 (stereo not drawn) [1KB, 4-(3-chlorophenyl)-5-oxo-2,5-dihydrofuran-2-ylmethyl pyrrole-2-carboxylate]
A. niger
  MIC: 1 to 2 µg/mL (≈ 3.15 to 6.29 µM)
C. albicans
  MIC: 0.5 to 1 µg/mL (≈ 1.57 to 3.15 µM)
F. proliferatum
  MIC: 1 to 2 µg/mL (≈ 3.15 to 6.29 µM)

## O=C1OC(COC(=O)c2ccsc2)C=C1c1ccc(Cl)c(Cl)c1 (stereo not drawn) [1EA, 4-(3,4-dichlorophenyl)-5-oxo-2,5-dihydrofuran-2-ylmethyl thiophene-3-carboxylate]
A. niger
  MIC: 1 µg/mL (≈ 2.71 µM)
C. albicans
  MIC: 2 µg/mL (≈ 5.42 µM)
F. proliferatum
  MIC: 2 µg/mL (≈ 5.42 µM)

## O=C1OC(COC(=O)c2cc(Br)c(Br)s2)C=C1c1cccc(Cl)c1 (stereo not drawn) [1FB, 4-(3-chlorophenyl)-5-oxo-2,5-dihydrofuran-2-ylmethyl 4,5-dibromothiophene-2-carboxylate]
A. niger
  MIC: 2 to 4 µg/mL (≈ 4.06 to 8.12 µM)
C. albicans
  MIC: 1 to 2 µg/mL (≈ 2.03 to 4.06 µM)
F. proliferatum
  MIC: 1 to 2 µg/mL (≈ 2.03 to 4.06 µM)

## O=C1OC(COC(=O)c2cccs2)C=C1c1ccc(Cl)c(Cl)c1 (stereo not drawn) [1DA, 4-(3,4-dichlorophenyl)-5-oxo-2,5-dihydrofuran-2-ylmethyl thiophene-2-carboxylate]
A. niger
  MIC: 1 µg/mL (≈ 2.71 µM)
C. albicans
  MIC: 2 µg/mL (≈ 5.42 µM)
F. proliferatum
  MIC: 2 µg/mL (≈ 5.42 µM)

## CC(=O)OCC1C=C(c2cccc(Br)c2)C(=O)O1 (stereo not drawn) [1BC, 3-bromophenyl-5-acetxymethyl-2H,5H-furan-2-one]
A. niger
  MIC: 4 µg/mL (≈ 12.9 µM)
C. albicans
  MIC: 2 µg/mL (≈ 6.43 µM)
F. proliferatum
  MIC: 2 µg/mL (≈ 6.43 µM)

## O=C1OC(COC(=O)c2cccc(I)c2)C=C1c1cccc(Br)c1 (stereo not drawn) [1JC, 4-(3-bromophenyl)-5-oxo-2,5-dihydrofuran-2-ylmethyl 3-iodobenzoate]
A. niger
  MIC: > 4 µg/mL
C. albicans
  MIC: 2 to 4 µg/mL (≈ 4.01 to 8.01 µM)
F. proliferatum
  MIC: > 4 µg/mL
